From patent US10077261B2, “Imidazolin-5-one derivative useful as FASN inhibitors for the treatment of cancer” (Janssen Pharmaceutica NV, priority 2012, dated 2018)

Key:
[1] = target: T1, hFASN enzyme (full length) (Homo sapiens, UniProt P49327); assay: Fatty Acid Synthase (FASN) inhibition scintillation proximity assay; assay type: biochemical; settings: for inhibition at 10 µM: read-out: Human FASN % inhibition @ 10 μM, 10 μM test compound; for IC50: read-out: Human FASN pIC50 (converted)
T1 construct: 10 μL hFASN enzyme (full length, 300 ng, purified in house); made in house
Summary of the method: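 Full-length in-house purified enzyme (300 ng) was tested in 100 mM KH2PO4 pH 7.5, 1 mM DTT with ³H-acetyl-CoA and malonyl-CoA as substrates; compounds ranged 0.01–30 μM. Reactions were stopped with streptavidin imaging beads, read by LEADseeker at 610 nm, and fitted to a 4-parameter logistic curve.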

A2780 ovarian cells [2] = assay: A2780 ovarian cell proliferation assay in lipid reduced medium, with palmitate (MTT); assay type: cell-based; settings: Homo sapiens, A2780, 96 h; read-out: pIC50 A2780 Ovarian Cell, With Palmitate (converted)
Summary of the method: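 Seeded cells were switched next day to lipid-reduced serum, exposed to compound and 25 μM palmitate complexed with fatty-acid-free BSA, and incubated 96 h. Proliferation was then determined by MTT absorbance at 544 nm, with a best-fit curve of signal against concentration.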

A2780 ovarian cells [3] = assay: A2780 ovarian cell proliferation assay in lipid reduced medium, without palmitate (MTT); assay type: cell-based; settings: Homo sapiens, A2780, 96 h; read-out: pIC50 A2780 Ovarian Cell, Without Palmitate (converted)
[4] = test system: LNCaP-Vancouver prostate cells; assay: In vitro LNCaP Vancouver prostate cell proliferation assay in lipid reduced medium; assay type: cell-based; settings: read-out: pIC50 LNCaP_Vancouver prostate cell (converted)
[5] = test system: PC-3M-Luc-C6 prostate cells; assay: In vitro PC-3M-Luc-C6 prostate cell proliferation assay in lipid reduced medium; assay type: cell-based; settings: 96 h, read-out: pIC50 PC-3M-Luc-C6 prostate cell (converted)
[6] = target: Fatty Acid Synthase Keto-reductase Domain (FASN KR) (Homo sapiens, UniProt P49327); assay: Fatty Acid Synthase keto-reductase domain (FASN KR) inhibition, NADPH oxidation at 340 nm
Fatty Acid Synthase Keto-reductase Domain (FASN KR), sequence (P49327 whole entry, the tested form may be a part): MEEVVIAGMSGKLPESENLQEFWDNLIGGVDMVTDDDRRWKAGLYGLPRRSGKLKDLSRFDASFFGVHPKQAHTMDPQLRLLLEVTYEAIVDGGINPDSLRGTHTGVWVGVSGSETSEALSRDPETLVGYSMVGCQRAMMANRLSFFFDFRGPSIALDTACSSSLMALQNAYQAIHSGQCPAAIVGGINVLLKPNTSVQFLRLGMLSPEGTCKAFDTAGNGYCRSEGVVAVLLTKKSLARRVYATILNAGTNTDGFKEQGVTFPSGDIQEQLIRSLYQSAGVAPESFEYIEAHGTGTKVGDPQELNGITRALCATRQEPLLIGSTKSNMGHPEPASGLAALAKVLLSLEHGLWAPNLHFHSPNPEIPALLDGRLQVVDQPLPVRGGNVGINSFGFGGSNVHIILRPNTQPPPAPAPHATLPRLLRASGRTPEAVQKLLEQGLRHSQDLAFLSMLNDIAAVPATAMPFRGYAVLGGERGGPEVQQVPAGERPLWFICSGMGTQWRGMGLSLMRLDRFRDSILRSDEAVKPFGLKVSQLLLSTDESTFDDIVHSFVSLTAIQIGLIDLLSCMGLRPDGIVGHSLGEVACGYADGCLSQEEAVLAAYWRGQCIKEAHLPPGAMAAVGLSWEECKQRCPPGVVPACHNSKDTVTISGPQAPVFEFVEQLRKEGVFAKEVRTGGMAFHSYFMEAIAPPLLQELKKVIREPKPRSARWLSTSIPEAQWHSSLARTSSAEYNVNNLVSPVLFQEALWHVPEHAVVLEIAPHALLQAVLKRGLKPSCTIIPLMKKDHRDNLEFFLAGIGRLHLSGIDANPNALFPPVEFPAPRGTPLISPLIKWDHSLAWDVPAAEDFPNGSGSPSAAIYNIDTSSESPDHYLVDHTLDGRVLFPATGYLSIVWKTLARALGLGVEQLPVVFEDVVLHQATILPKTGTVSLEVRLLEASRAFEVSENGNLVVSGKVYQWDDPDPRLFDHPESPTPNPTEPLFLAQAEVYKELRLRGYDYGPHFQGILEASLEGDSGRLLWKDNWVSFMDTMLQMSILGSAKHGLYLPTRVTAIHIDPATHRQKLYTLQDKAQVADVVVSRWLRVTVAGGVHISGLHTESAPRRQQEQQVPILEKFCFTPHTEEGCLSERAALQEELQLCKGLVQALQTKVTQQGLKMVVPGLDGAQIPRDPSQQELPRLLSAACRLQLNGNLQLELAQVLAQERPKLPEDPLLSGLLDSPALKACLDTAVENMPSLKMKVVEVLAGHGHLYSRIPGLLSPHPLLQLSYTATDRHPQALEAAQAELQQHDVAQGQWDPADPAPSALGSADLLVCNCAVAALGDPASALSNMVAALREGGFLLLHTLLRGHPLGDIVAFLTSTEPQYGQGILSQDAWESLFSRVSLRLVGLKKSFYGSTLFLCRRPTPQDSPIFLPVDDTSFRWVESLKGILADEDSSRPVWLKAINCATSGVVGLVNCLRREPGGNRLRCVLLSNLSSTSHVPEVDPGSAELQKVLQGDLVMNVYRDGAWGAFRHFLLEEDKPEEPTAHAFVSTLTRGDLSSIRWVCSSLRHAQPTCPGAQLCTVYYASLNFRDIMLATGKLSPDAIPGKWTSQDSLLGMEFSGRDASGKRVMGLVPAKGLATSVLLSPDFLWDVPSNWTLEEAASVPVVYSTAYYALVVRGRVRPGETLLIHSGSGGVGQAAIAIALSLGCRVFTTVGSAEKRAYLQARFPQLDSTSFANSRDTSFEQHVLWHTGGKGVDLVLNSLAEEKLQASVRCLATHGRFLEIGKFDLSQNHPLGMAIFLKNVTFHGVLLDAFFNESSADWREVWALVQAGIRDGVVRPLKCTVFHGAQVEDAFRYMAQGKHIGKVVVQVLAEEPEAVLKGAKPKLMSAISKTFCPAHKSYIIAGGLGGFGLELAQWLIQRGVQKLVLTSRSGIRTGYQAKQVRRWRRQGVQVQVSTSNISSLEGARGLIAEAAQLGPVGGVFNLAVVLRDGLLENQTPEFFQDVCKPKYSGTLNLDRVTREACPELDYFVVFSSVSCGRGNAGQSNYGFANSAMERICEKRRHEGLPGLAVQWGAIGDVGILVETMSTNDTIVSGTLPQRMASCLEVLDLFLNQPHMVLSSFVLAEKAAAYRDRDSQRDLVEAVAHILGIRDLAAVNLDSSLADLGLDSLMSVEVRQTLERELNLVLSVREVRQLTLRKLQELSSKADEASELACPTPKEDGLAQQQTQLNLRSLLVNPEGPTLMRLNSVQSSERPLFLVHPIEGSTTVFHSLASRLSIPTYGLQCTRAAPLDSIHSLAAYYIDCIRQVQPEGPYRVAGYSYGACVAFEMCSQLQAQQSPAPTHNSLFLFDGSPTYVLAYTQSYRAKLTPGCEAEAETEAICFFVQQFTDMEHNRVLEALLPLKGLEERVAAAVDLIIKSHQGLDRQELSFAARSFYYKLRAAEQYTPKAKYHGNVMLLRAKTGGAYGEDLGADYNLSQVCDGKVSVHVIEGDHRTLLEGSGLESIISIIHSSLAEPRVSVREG
Experimental: After 20 minutes incubation at room temperature the plate was measured again (T2).
The decrease in absorbance was calculated as (Absorbance before incubation T1)−(Absorbance following incubation T2).
A plot of Controlmin versus test compound concentration was fitted to a 4-parameter logistic curve using a non-linear least squares regression method.

T1 sequence (P49327 whole entry): as the sequence (P49327 whole entry, the tested form may be a part) above

SMILES | inhibition at 10 µM [1] | IC50 [1] | IC50 (A2780 ovarian cells [2]) | IC50 (A2780 ovarian cells [3]) | IC50 [4] | IC50 [5] | IC50 [6]
O=C(C1CC1)N1CC[C@@H](CN2C(=O)C3(CC3)N=C2c2ccc(-c3ccc4[nH]ncc4c3)c(F)c2)C1 [compound 414, 6-{[(3R)-1-(Cyclopropylcarbonyl)pyrrolidin-3-yl]methyl}-5-[3-fluoro-4-(1H-indazol-5-yl)phenyl]-4,6-diazaspiro[2.4]hept-4-en-7-one] | 101% | 135 nM | > 10000 nM | ~200 nM | 1150 nM | 178 nM | 295 nM
Cc1cc2cc(-c3ccc(C4=NC5(CC5)C(=O)N4C[C@@H]4CCN(C(=O)C5CC5)C4)c(C)c3)ccc2[nH]1 [compound 317] | 103% | 57.5 nM | > 10000 nM | 24.5 nM | 257 nM | 51.3 nM | 58.9 nM
Cc1cc(-c2ccc3sc(C)c(C)c3c2)ccc1C1=NC2(CC2)C(=O)N1CC1CN(C(=O)C2CC2)C1 [compound 290, 6-((1-(cyclopropanecarbonyl)azetidin-3-yl)methyl)-5-(4-(2,3-dimethylbenzo[b]thiophen-5-yl)-2-methylphenyl)-4,6-diazaspiro[2.4]hept-4-en-7-one] | 110% | 79.4 nM | > 10000 nM | ~1950 nM | ~2140 nM | ~1170 nM | 331 nM
Cc1cc2cc(-c3ccc(C4=NC5(CC5)C(=O)N4C[C@@H]4CCN(C(=O)C5CC5)C4)c(F)c3)ccc2o1 [compound 242, (R)-6-((1-(cyclopropanecarbonyl)pyrrolidin-3-yl)methyl)-5-(2-fluoro-4-(2-methylbenzofuran-5-yl)phenyl)-4,6-diazaspiro[2.4]hept-4-en-7-one] | 103% | 19.1 nM | > 10000 nM | ~724 nM | ~1580 nM | ~646 nM | 35.5 nM
Cc1nc2cc(-c3ccc(C4=NC5(CC5)C(=O)N4CC4CN(C(=O)C5CC5)C4)c(F)c3)ccc2s1 [compound 356, 6-((1-(cyclopropanecarbonyl)azetidin-3-yl)methyl)-5-(2-fluoro-4-(2-methylbenzo[d]thiazol-5-yl)phenyl)-4,6-diazaspiro[2.4]hept-4-en-7-one] | 99% | 102 nM | > 10000 nM | ~162 nM | 1480 nM | ~324 nM | 479 nM
O=C(C1CC1)N1CC(CN2C(=O)C3(CC3)N=C2c2ccc(-c3ccc(-n4ccnc4)nc3)cc2F)C1 [compound 526, 6-{[1-(Cyclopropylcarbonyl)azetidin-3-yl]methyl}-5-{2-fluoro-4-[6-(1H-imidazol-1-yl)pyridin-3-yl]phenyl}-4,6-diazaspiro[2.4]hept-4-en-7-one] | 93% | 912 nM | > 10000 nM | ~1020 nM | 5890 nM | 1480 nM | 2190 nM
Cc1sc2ccc(-c3ccc(C4=NC5(CC5)C(=O)N4C[C@@H]4CCN(C(=O)C5CC5)C4)c(F)c3)cc2c1C [compound 245] | 98% | 32.4 nM | > 10000 nM | 1550 nM | ~1700 nM | ~646 nM | 37.2 nM
COc1ccc2ccc(-c3ccc(C4=NC5(CC5)C(=O)N4CC4CN(C(=O)C5CC5)C4)c(F)c3)cc2c1 [compound 618, 6-{[1-(Cyclopropylcarbonyl)azetidin-3-yl]methyl}-5-[2-fluoro-4-(7-methoxynaphthalen-2-yl)phenyl]-4,6-diazaspiro[2.4]hept-4-en-7-one] | 98% | 229 nM | > 10000 nM | 794 nM | 3470 nM | ~2570 nM | 1120 nM
